Values after ≈ are worked out from the molar mass of the structure shown. Values joined by “and” are separate entries in the source; they are usually repeats but may differ in a detail not shown here. Identical values can stand only once.
Columns and labels:
[1] = system: Pseudomonas aeruginosa ATCC 27,953; test: MIC, two-fold serial dilution, P. aeruginosa; format: cell-based; settings: ATCC27, read-out: Minimum inhibitory concentration, PA
Summary of the method: (§1)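 Broth tube dilution, two-fold, final 1000–125 μg/mL; inoculum 1 × 10^8 CFU/mL bacteria, 1 × 10^6 CFU/mL yeast (0.1 mL/5 mL); 37 °C, 24 h; MIC read as lowest conc. with no visible growth. Only agar-diffusion actives (IZ > 16 mm) tested.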

COX-2 = target: T1, COX-2 (Homo sapiens, UniProt P35354); test: COX-2 inhibition, Cayman assay kit; format: biochemical; settings: for IC50: mean of two determinations; for SI, selectivity index (COX-1/COX-2): ratio of COX-1/COX-2 IC50
T1 construct: purchased Cayman Chemical 701080
T1 sequence (P35354 18-604): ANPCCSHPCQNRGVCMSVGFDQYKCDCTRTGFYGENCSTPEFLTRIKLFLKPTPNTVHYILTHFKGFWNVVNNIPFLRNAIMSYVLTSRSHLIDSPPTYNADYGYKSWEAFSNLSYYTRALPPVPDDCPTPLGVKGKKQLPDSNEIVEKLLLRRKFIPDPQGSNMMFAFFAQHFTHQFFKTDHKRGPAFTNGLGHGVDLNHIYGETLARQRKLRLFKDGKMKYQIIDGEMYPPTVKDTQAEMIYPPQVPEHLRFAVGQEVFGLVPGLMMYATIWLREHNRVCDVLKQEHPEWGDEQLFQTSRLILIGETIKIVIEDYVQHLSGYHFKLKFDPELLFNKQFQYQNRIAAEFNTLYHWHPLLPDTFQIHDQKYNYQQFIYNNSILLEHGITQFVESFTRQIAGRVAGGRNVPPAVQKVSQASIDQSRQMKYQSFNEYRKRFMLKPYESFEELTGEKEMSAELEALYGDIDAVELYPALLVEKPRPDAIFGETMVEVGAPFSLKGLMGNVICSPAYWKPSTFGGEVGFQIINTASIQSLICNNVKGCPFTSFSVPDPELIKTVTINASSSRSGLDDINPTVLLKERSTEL

trypsin = test: Proteinase-inhibitory activity; format: biochemical; settings: 250 µg/mL; mean ± SD (n = 3)
Summary of the method: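 Trypsin (0.06 mg per 2 mL, 20 mM Tris-HCl pH 7.4) was preincubated 5 min with test sample at 250 µg/mL, then 0.8% casein was added for 20 min. Perchloric acid stopped the reaction and supernatant absorbance was read at 280 nm. % inhibition is relative to the no-sample control, in triplicate.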

[2] = system: Staphylococcus aureus ATCC 29213; test: Agar well diffusion, S. aureus; format: cell-based; settings: ATCC29213, 100 μL of 10 mg/mL in DMSO, read-out: diameter of inhibition zone, SA
Summary of the method: (§2)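 Agar well diffusion; NA for bacteria, SDA for yeast; inoculum 1 × 10^8 CFU/mL bacteria, 1 × 10^6 CFU/mL yeast. 100 μL of 10 mg/mL compound in DMSO per 10 mm well. 24 h, 37 °C; zone diameter, mm, n=3.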

[3] = system: Bacillus subtilis ATCC 6633; test: MIC, two-fold serial dilution, B. subtilis; format: cell-based; settings: ATCC6633, read-out: Minimum inhibitory concentration, BS
Summary of the method: as §1

[4] = system: Bacillus subtilis ATCC 6633; test: Agar well diffusion, B. subtilis; format: cell-based; settings: ATCC6633, 100 μL of 10 mg/mL in DMSO, read-out: diameter of inhibition zone, BS
Summary of the method: as §2

COX-1 = target: T2, COX-1 (Homo sapiens, UniProt P23219); test: COX-1 inhibition, Cayman assay kit; format: biochemical; settings: mean of two determinations
T2 construct: purchased Cayman Chemical 701070

[5] = system: Bacillus megaterium ATCC 9885; test: Agar well diffusion, B. megaterium; format: cell-based; settings: Priestia megaterium, ATCC9885, 100 μL of 10 mg/mL in DMSO, read-out: diameter of inhibition zone, BM
Summary of the method: as §2

T2 sequence (P23219 24-599): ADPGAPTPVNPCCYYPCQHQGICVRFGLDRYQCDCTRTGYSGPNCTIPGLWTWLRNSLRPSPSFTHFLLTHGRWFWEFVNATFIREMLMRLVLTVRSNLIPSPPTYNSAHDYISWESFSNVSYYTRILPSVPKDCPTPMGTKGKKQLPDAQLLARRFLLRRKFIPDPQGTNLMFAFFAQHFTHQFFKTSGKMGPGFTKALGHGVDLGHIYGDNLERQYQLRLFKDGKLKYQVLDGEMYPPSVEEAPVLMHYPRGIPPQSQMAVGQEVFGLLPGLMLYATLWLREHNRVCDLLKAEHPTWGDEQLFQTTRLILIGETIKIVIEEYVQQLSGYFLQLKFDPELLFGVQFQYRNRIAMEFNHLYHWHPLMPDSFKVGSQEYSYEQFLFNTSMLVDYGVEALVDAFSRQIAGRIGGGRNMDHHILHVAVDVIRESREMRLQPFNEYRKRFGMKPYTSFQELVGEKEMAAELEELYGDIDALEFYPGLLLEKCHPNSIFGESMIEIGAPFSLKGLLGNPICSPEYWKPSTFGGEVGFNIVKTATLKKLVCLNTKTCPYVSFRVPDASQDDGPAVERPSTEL

SMILES | MIC [1] [µg/mL] | IC50 (COX-2) [µM] | SI, selectivity index (COX-1/COX-2) (COX-2) | % Inhibition (proteinase) (trypsin) [%] | zone of inhibition at 10000 µg/mL [2] [mm] | MIC [3] [µg/mL] | zone of inhibition at 10000 µg/mL [4] [mm] | IC50 (COX-1) [µM] | zone of inhibition at 10000 µg/mL [5] [mm]
Cc1ccc2oc(=O)c3c(c2c1)OC(N)=C(C#N)C3c1ccc([N+](=O)[O-])cc1 (racemic) [2a, (±)-2-Amino-9-methyl-4-(4-nitrophenyl)-5-oxo-4H,5H-pyrano[3,2-c]chromene-3-carbonitrile] | 500 (≈ 1330 µM) | 2.74 | 42.58 | 17.38 ± 1.63 | 24 | 500 (≈ 1330 µM) | 22 | 117 | 25
Cc1ccc2oc(=O)c3c(c2c1)OC(N)=C(C#N)C3c1ccco1 (racemic) [2b, (±)-2-Amino-4-(furan-2-yl)-9-methyl-5-oxo-4H,5H-pyrano[3,2-c]chromene-3-carbonitrile] | 1000 (≈ 3120 µM) | 4.25 | 47.3 and 47.33 | 74.68 ± 3.01 | 25 | 500 (≈ 1560 µM) | 23 | 201 | 25
COc1cc(/C=N/C2=C(C#N)C(c3ccc([N+](=O)[O-])cc3)c3c(c4cc(C)ccc4oc3=O)O2)cc(OC)c1OC (racemic) [5c, (±)-9-methyl-4-(4-nitrophenyl)-5-oxo-2-((3,4,5-trimethoxybenzylidene)amino)-4H,5H-pyrano[3,2-c]chromene-3-carbonitrile] | 500 (≈ 903 µM) | 13.3 | 1.39 | 68.5 ± 6.23 | 23 | 500 (≈ 903 µM) | 23 | 18.5 | 24
Cc1ccc2oc(=O)c3c(c2c1)OC(/N=C/c1ccc(Cl)cc1Cl)=C(C#N)C3c1ccco1 (racemic) [5f, (±)-2-((2,4-dichlorobenzylidene)amino)-4-(furan-2-yl)-9-methyl-5-oxo-4H,5H-pyrano[3,2-c]chromene-3-carbonitrile] | 1000 (≈ 2100 µM) | 3.1 | 29.1 | 26.83 ± 5.33 | 25 | 500 (≈ 1050 µM) | 23 | 90.2 | 20
NS(=O)(=O)c1ccc(NS(=O)(=O)c2c(O)c3cc(Cl)ccc3oc2=O)cc1 [7a, 6-Chloro-4-hydroxy-2-oxo-N-(4-sulfamoylphenyl)-2H-chromene-3-sulfonamide] | 250 (≈ 580 µM) | 17.4 | 13.75 | 18.78 ± 2.05 | 28 | 250 (≈ 580 µM) | 29 | 239 | 25
O=c1oc2ccc(Cl)cc2c(O)c1S(=O)(=O)Nc1ccc(S(=O)(=O)Nc2ncccn2)cc1 [7c, 6-Chloro-4-hydroxy-2-oxo-N-(4-(N-(pyrimidin-2-yl)sulfamoyl)phenyl)-2H-chromene-3-sulfonamide] | 250 (≈ 491 µM) | 19.9 | 3.12 | 8.9 ± 2.04 | 30 | 125 (≈ 246 µM) | 31 | 62.3 | 30
Cc1ccc2oc(=O)c(S(=O)(=O)Nc3ccc(S(=O)(=O)Nc4ncccn4)cc3)c(O)c2c1 [7d, 4-Hydroxy-6-methyl-2-oxo-N-(4-(N-(pyrimidin-2-yl)sulfamoyl)phenyl)-2H-chromene-3-sulfonamide] | 125 (≈ 256 µM) | 3.35 | 63.96 | 36.84 ± 4.87 | 30 | 125 (≈ 256 µM) | 31 | 214 | 30
O=c1oc2ccc(Cl)cc2c(O)c1S(=O)(=O)Nc1ccc(S(=O)(=O)Nc2nccs2)cc1 [7e, 6-Chloro-4-hydroxy-2-oxo-N-(4-(N-(thiazol-2-yl)sulfamoyl)phenyl)-2H-chromene-3-sulfonamide] | 1000 (≈ 1950 µM) | 16.1 | 1.84 | 19.8 ± 2.54 | 23 | 500 (≈ 973 µM) | 25 | 29.6 | 25
Cc1ccc2oc(=O)c(S(=O)(=O)Nc3ccc(S(=O)(=O)Nc4nccs4)cc3)c(O)c2c1 [7f, 4-Hydroxy-6-methyl-2-oxo-N-(4-(N-(thiazol-2-yl)sulfamoyl)phenyl)-2H-chromene-3-sulfonamide] | 500 (≈ 1010 µM) | 10.1 | 4.06 | 43.88 ± 5.6 | 24 | 250 (≈ 507 µM) | 27 | 40.9 | 27
O=c1oc2ccc(Cl)cc2c(O)c1S(=O)(=O)Nc1ccccc1 [8a, 6-Chloro-4-hydroxy-2-oxo-N-phenyl-2H-chromene-3-sulfonamide] | 500 (≈ 1420 µM) | 8.5 | 2.94 | 44.7 ± 8.22 | 26 | 250 (≈ 711 µM) | 28 | 25 | 29
Cc1ccc2oc(=O)c(S(=O)(=O)Nc3ccccc3)c(O)c2c1 [8b, 4-Hydroxy-6-methyl-2-oxo-N-phenyl-2H-chromene-3-sulfonamide] | 1000 (≈ 3020 µM) | 13.4 | 1.94 | 14.3 ± 2.21 | 20 | 1000 (≈ 3020 µM) | 19 | 26 | 24
O=c1oc2ccc(Cl)cc2c(O)c1S(=O)(=O)Nc1ccc(O)cc1 [8c, 6-Chloro-4-hydroxy-N-(4-hydroxyphenyl)-2-oxo-2H-chromene-3-sulfonamide] | 250 (≈ 680 µM) | 11.9 | 1.3 and 1.29 | 41.69 ± 2.83 | 30 | 125 (≈ 340 µM) | 29 | 15.4 | 28
Cc1ccc2oc(=O)c(S(=O)(=O)Nc3ccc(O)cc3)c(O)c2c1 [8d, 4-Hydroxy-N-(4-hydroxyphenyl)-6-methyl-2-oxo-2H-chromene-3-sulfonamide] | 125 (≈ 360 µM) | 1.86 | 10.5 and 10.45 | 20.15 ± 7.31 | 30 | 125 (≈ 360 µM) | 29 | 19.4 | 29

From PMC7397269, “Synthesis and Evaluation of New Coumarin Derivatives as Antioxidant, Antimicrobial, and Anti-Inflammatory Agents” (Molecules, 2020)
